Earlier results on ten molecules are cited in patent US20080057111A1 (priority 2006, published 2008).

Test system in one data set: not given
Conditions: not given
Take `Nc1ccccc1C(=O)O` [σ-aminobenzoic acid]: the “anti-endotoxin activity in vivo” value is “anti-endotoxin activity”. Consider `O=C(O)c1ccccc1O` [salicylic acid], for which the “anti-endotoxin activity in vivo” value is recorded as “anti-endotoxin activity”. In the case of `COc1cc(C(=O)O)cc(OC)c1O` [syringic acid], the “anti-endotoxin activity in vivo” value is given as “anti-endotoxin activity”. As for `O=C(O)c1ccccc1` [benzoic acid], the “anti-endotoxin activity in vivo” value is on record as “anti-endotoxin activity”.

For another data set, the system named is severe acute respiratory syndrome (SARS) virus. Particulars: recent report.
As to `CC[C@H](CC[C@@H](C)[C@H]1CC[C@H]2[C@@H]3CC=C4C[C@@H](O)CC[C@]4(C)[C@H]3CC[C@]12C)C(C)C` [beta-sitosterol], the “effect on SARS virus” value is “inhibitory effect”.

Regarding `COc1ccc([C@@H]2CC(=O)c3c(O)cc(O)cc3O2)cc1O` [hespertin], the “effect on SARS virus” value is “inhibitory effect”. In the case of `OC[C@H]1O[C@@H](Oc2c[nH]c3ccccc23)[C@H](O)[C@@H](O)[C@@H]1O` [indican], the “effect on SARS virus” value was “inhibitory effect”. As to `C=CCC(=NOS(=O)(=O)O)S[C@@H]1O[C@H](CO)[C@@H](O)[C@H](O)[C@H]1O` (stereo in doubt) [sinigrin], the “effect on SARS virus” value is given as “inhibitory effect”. For the molecule `O=c1c(-c2ccc(O)cc2)coc2cc(O)ccc12` [daidzein], the “effect on SARS virus” value is listed as “inhibitory effect”. As to `O=C1/C(=C2\Nc3ccccc3C2=O)Nc2ccccc21` [indigo], the “effect on SARS virus” value is given as “inhibitory effect”.
